Data: patent US5037578A, “O,O'-bridged oligophenylene laser dyes and dyestuff lasers and method of lasing therewith” (Exciton Chemical Company, priority 1990, dated 1991)
Values after ≈ are worked out from the molar mass of the structure shown. Values joined by “and” are separate entries in the source; they are usually repeats but may differ in a detail not shown here. Equal values may be shown once. Each block holds one compound with its values, some of them ahead of it.

How the values were obtained:
[1] = Solubilities of o,o'-bridged oligophenylenes in laser solvents at 21° C.; assay type: physicochemical; conditions: for Solubility: 21° C.; for Solubility compared with 2,2'-bifluorene: in solvents (Table I)
Text: It is further discovered that when substituent X of the bridged biphenyl moiety is a carbon atom which is free of benzylic hydrogens, the laser dye is relatively less reactive and relatively more soluble. In other words, it has been realized that the absence of benzylic hydrogens from the bridged carbon substituent, that is, the carbon substituent that is bonded directly to the phenyl moieties to form the bridge, renders the organic laser dyes of the present invention less reactive and more soluble. In view of the present disadvantages concerning the solubility of organic laser dyes available hitherto, this is quite significant.

[2] = Fluorescence emission spectrum and Fluorescence Quantum Efficiency; assay type: physicochemical; conditions: for Fluorescence emission intensity, first peak / Fluorescence emission intensity, second peak / Fluorescence emission peak, first / Fluorescence emission peak, second: slits 2 nm
Text: The fluorescence emission spectrum for the dye 9,9-dipropylfluorene as illustrated in FIG. 1 was detected on a Perkin-Elmer MPF-44A, the slits were set at 2 nm and the excitation light was at 265 nm. The Fluorescence Quantum Efficiency (FQE) was about the same as that of fluorene - 55%; and the fluorescence emission peaks at 306 nm(intensity 86) and […](intensity 67) were also similar to those of fluorene [the fluorescence emission spectrum for fluorene as illustrated in FIG. 5 was also detected on a Perkin-Elmer MPF-44A, the slits were set at 2 nm and the excitation light was at 265 nm and the fluorescence emission peaks for fluorene are at 303 nm(intensity 93) and 311 nm(intensity 73)].
This dye had two fluorescence peaks of almost equal intensity at 360 nm(intensity 33) and 378 nm(intensity 28) as illustrated in FIG. 2. […] The fluorescence emission spectrum of the dye 9,9,9',9'-tetrapropyl-2,2'-bifluorene was detected on a Perkin-Elmer MPF-44A, the slits were set at 2 nm and the excitation light was at 331 nm.
This dye had fluorescence peaks at 324 nm(intensity 90) and 338 nm(intensity 76) and a reported fluorescence quantum yield of 100% in cyclohexane as illustrated in FIG. 3. […] The fluorescence emission spectrum for the dye 3-phenyldibenzofuran as illustrated in FIG. 3 was detected on a Perkin-Elmer MPF-44A, the slits were set at 2 nm and the excitation light was at 301 nm.
The dye, 3,3'-bi(dibenzofuran), was prepared in accordance with the process disclosed in H.O. Wirth, G. Waese and W. Kern: Synthese Und Eigenschaften Von: Oxydo-p-oligophenylenen. Makromol. Chem. 86: 139(1965) which is incorporated herein in its entirety by reference, and was purified by extraction from Brockmann Activity I alumina with chloroform in an Ace-Kauffman column to give a white solid, mp 249.5°-250.5° C. (lit.mp 252.5° C.). This dye had two fluorescence peaks of almost equal intensity at 353 nm(intensity 47) and 369 nm(intensity 30) in cyclohexane as illustrated in FIG. 4.

[3] = cyclohexane; reported; cited from earlier work

SMILES: c1ccc2c(c1)Cc1cc(-c3ccc4c(c3)Cc3ccccc3-4)ccc1-2 [2,2'-bifluorene]
Solubility ([1]; 1,2-dichloroethane): 1.0 × 10^-3 M and 0.33 g/l | Solubility ([1]; 95% ethanol): 0.4 g/L (≈ 1210 µM) | Solubility ([1]; 100% ethanol): 2.3 × 10^-5 M and 0.0077 g/l | Solubility ([1]; Toluene): 1.3 × 10^-3 M and 0.4 g/l | Solubility ([1]; cyclohexane): 3.0 × 10^-5 M and 0.01 g/l

SMILES: c1ccc2c(c1)oc1cc(-c3ccc4c(c3)oc3ccccc34)ccc12 [3,3'-bi(dibenzofuran)]
Solubility ([1]; 95% ethanol): 1.0 × 10^-2 M and 2.5 g/l | Solubility ([1]; 100% ethanol): 6.3 × 10^-5 M and 0.021 g/l | Solubility ([1]; DMF): 2.5 × 10^-3 M and 0.84 g/l | Solubility ([1]; Methanol): 2.1 × 10^-5 M and 0.007 g/l | Solubility ([1]; Toluene): 2.4 × 10^-3 M and 0.8 g/l | Solubility ([1]; cyclohexane): 9.0 × 10^-5 M and 0.030 g/l | Solubility ([1]; dioxane): 1.3 × 10^-3 M and 0.43 g/l | Solubility compared with 2,2'-bifluorene [1]: greater than that of 2,2'-bifluorene | Fluorescence emission spectrum compared with dye of Example 2 [2]: almost superimposable on that of the dye discussed in Example 2 | Fluorescence emission intensity, first peak ([2]; excitation 323 nm, cyclohexane): 47 | Fluorescence emission intensity, second peak ([2]; excitation 323 nm, cyclohexane): 30 | Fluorescence emission peak, first ([2]; excitation 323 nm, cyclohexane): 353 nm | Fluorescence emission peak, second ([2]; excitation 323 nm, cyclohexane): 369 nm

SMILES: c1ccc(-c2ccc3c(c2)oc2ccccc23)cc1 [3-phenyldibenzofuran]
Solubility ([1]; 50% ethanol): 8.4 × 10^-3 M and 2.0 g/l | Solubility ([1]; 95% ethanol): 1.1 × 10^-2 M and 2.7 g/l | Solubility ([1]; 100% ethanol): 1.6 × 10^-2 M and 3.9 g/l | Solubility ([1]; Methanol): 1.2 × 10^-2 M and 2.9 g/l | Solubility ([1]; cyclohexane): > 2.44 g/l and > 1.0 × 10^-2 M | Solubility compared with p-terphenyl ([1]; in all cases (See Table I)): much greater than that of p-terphenyl | Solubility compared with p-terphenyl ([1]; methanol, 50% ethanol, 95% ethanol and absolute ethanol): much more soluble | Fluorescence emission intensity, first peak ([2]; excitation 301 nm, cyclohexane): 90 | Fluorescence emission intensity, second peak ([2]; excitation 301 nm, cyclohexane): 76 | Fluorescence emission peak, first ([2]; excitation 301 nm, cyclohexane): 324 nm | Fluorescence emission peak, second ([2]; excitation 301 nm, cyclohexane): 338 nm | FQE in methanol compared with cyclohexane ([2]; methanol): the same in methanol as in cyclohexane | Fluorescence quantum yield [3]: 100%

SMILES: CCn1c2ccccc2c2ccc(-c3ccc4c5ccccc5n(CC)c4c3)cc21 [9,9'-diethyl-2,2'-bicarbazole]
Violet fluorescence compared with compounds of Examples 2 and 4 ([2]; in alcohols): brighter violet fluorescence in alcohols than the compounds of Examples 2 and 4

The remaining lines, values ahead:

Solubility ([1]; 100% ethanol): 7.8 × 10^-4 M and 0.39 g/l | Solubility ([1]; Methanol): 3.4 × 10^-4 M and 0.17 g/l | Solubility ([1]; cyclohexane): 2.0 × 10^-2 M and 10 g/l | Solubility ([1]; dioxane): 6.5 × 10^-3 M and 3.2 g/l | Solubility compared with 2,2'-bifluorene [1]: more soluble than 2,2'-bifluorene | Fluorescence emission intensity, first peak ([2]; excitation 331 nm): 33 | Fluorescence emission intensity, second peak ([2]; excitation 331 nm): 28 | Fluorescence emission peak, first ([2]; excitation 331 nm): 360 nm | Fluorescence emission peak, second ([2]; excitation 331 nm): 378 nm
SMILES: CCCC1(CCC)c2ccccc2-c2ccc(-c3ccc4c(c3)C(CCC)(CCC)c3ccccc3-4)cc21 [9,9,9',9'-tetrapropyl-2,2'-bifluorene]

Fluorescence Quantum Efficiency (FQE) [2]: ~55% | Fluorescence emission intensity, first peak ([2]; excitation 265 nm): 86 | Fluorescence emission intensity, second peak ([2]; excitation 265 nm): 67 | Fluorescence emission peak, first ([2]; excitation 265 nm): 306 nm
SMILES: CCCC1(CCC)c2ccccc2-c2ccccc21 [9,9-dipropylfluorene]

Fluorescence Quantum Efficiency (FQE) [2]: 55% | Fluorescence emission intensity, first peak ([2]; excitation 265 nm): 93 | Fluorescence emission intensity, second peak ([2]; excitation 265 nm): 73 | Fluorescence emission peak, first ([2]; excitation 265 nm): 303 nm | Fluorescence emission peak, second ([2]; excitation 265 nm): 311 nm
SMILES: c1ccc2c(c1)Cc1ccccc1-2 [fluorene, reference compound]

Solubility ([1]; Toluene): ~1.3 × 10^-3 M and ~0.4 g/l
SMILES: c1ccc(-c2ccc(-c3ccc(-c4ccccc4)cc3)cc2)cc1 [quaterphenyl, reference compound]
